Measured values from ChEMBL document CHEMBL1201862, “PubChem BioAssay data set” (2004).
Calls of active or inactive are those of the source.

Assays:
[1] = system: Vero; assay: host cell cytotoxicity of antiviral hits, dose response, cytotoxicity control for West Nile virus antiviral project, secondary assay (AID 1650); type: functional; conditions: Chlorocebus sabaeus
[2] = target: T1, Streptokinase A (Streptococcus pyogenes serotype M1, UniProt P10520); assay: S. pyogenes streptokinase expression inhibitors, potency, dose response, plasminogen activation absorbance, OD405 (AID 1914); type: functional, Streptococcus pyogenes M1 GAS;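 further: secreted streptokinase activity via plasminogen activation per viability signal from cell pellet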
T1 sequence (P10520 whole entry): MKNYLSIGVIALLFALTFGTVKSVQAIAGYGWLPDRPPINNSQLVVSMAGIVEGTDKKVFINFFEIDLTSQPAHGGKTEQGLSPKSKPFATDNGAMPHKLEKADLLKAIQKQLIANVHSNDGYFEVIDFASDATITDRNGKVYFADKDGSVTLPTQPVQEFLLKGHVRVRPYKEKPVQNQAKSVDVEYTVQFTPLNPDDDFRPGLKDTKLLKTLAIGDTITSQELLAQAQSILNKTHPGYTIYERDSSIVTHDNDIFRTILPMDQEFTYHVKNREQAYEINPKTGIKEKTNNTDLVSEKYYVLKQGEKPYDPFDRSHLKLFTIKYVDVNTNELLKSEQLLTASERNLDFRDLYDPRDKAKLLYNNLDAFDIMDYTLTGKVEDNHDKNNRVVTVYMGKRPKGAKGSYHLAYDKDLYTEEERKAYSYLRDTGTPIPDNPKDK

[3] = system: Streptococcus; assay: Group A Streptococcus viability loss, dose response, counter-screen for streptokinase expression inhibitor project, luminescence, BacTiterGlo (AID 1915); type: functional, organism-based;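 further: potency for reduction of bacterial viability or growth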
[4] = system: Streptococcus sp. 'group A'; assay: growth inhibition of control SK(-) GAS strain, dose response, counter-screen for streptokinase expression inhibitor project, luminescence, kanamycin, BacTiterGlo, confirmation (AID 1900); type: functional, organism-based
[5] = target: T2, Methionyl-tRNA synthetase, putative (Trypanosoma brucei brucei, UniProt Q38C91); type: functional, Trypanosoma brucei brucei strain 927/4 GUTat10.1
T2 sequence (Q38C91 whole entry): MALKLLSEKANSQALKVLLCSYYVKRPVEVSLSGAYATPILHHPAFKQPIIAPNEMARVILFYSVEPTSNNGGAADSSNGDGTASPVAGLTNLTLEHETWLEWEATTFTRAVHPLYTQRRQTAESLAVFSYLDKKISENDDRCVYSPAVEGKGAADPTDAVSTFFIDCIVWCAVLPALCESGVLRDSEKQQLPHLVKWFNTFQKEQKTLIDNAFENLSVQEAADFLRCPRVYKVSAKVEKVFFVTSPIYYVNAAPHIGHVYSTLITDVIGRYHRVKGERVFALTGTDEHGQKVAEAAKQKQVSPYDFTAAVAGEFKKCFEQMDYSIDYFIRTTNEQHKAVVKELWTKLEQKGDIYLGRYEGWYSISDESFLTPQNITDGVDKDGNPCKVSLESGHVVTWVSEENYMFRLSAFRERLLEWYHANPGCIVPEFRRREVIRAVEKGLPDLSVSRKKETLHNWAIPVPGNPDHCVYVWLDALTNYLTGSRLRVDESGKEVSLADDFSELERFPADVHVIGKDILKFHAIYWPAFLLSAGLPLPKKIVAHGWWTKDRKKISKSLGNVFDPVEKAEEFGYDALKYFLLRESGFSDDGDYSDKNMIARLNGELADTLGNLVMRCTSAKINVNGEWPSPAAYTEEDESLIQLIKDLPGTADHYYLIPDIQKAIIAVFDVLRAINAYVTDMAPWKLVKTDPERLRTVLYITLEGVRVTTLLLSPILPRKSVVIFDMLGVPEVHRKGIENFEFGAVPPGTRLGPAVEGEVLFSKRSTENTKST

[6] = Counterscreen for inhibitors of Trypanosoma brucei methionyl tRNA synthetase (MetRS): Luminescence-based cell-based high throughput dose response assay to identify compounds that are cytotoxic to Jurkat human T lymphocyte cells.; type: functional
[7] = Late stage counterscreen for inhibitors of Trypanosoma brucei methionyl tRNA synthetase (MetRS): Luminescence-based cell-based high throughput dose response assay to identify compounds that are cytotoxic to Jurkat human T lymphocyte cells.; type: functional
[8] = target: T2, Methionyl-tRNA synthetase, putative; type: functional, Trypanosoma brucei brucei strain 927/4 GUTat10.1; remark: listed apart in the source
[9] = P. falciparum Dd2 growth inhibitors, dose response, SYBR Green, dry powder samples, set 9 (AID 1159568); type: functional, cell-based
[10] = target: E3 ubiquitin-protein ligase Mdm2 (Homo sapiens, UniProt Q00987); assay: enhancers of MDM2-luciferase reporter signal, concentration-effect titration, project on inhibitors of MDM2 ubiquitin ligase, cellular assay, luminescent readout, 384-well plate format (AID 1394); type: functional;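 further: MDM2 E3 inhibitors raise luminescence so EC50 is for signal enhancement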
Sequence of E3 ubiquitin-protein ligase Mdm2 (Q00987 whole entry): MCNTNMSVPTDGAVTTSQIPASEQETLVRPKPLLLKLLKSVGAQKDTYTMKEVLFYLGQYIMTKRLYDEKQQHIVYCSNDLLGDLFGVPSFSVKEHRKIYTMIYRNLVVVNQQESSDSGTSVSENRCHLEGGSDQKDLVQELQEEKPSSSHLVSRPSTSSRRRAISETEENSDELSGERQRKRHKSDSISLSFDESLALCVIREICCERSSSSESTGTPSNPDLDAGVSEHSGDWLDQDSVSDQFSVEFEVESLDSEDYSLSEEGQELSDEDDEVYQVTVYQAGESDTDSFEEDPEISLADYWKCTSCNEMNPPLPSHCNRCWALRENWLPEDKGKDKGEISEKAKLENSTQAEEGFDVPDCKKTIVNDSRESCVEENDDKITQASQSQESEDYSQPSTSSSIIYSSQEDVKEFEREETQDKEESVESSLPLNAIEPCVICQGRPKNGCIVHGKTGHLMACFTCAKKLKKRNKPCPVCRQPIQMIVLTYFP

[11] = inhibitors of intracellular T. cruzi replication, confirmation, NIH3T3 host cells, beta-gal luminescence (AID 2044); type: functional, cell-based;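 further: intracellular parasites grown in NIH/3T3 mouse fibroblasts as host cells; luminescent beta-galactosidase reporter signal from transgenic T. cruzi replicating inside host cells; inhibitors lower the luminescence signal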
[12] = cells
[13] = cytotoxicity toward NIH3T3 fibroblasts, dose response, counter-screen, cell-based, ATP luminescence, mouse fibroblasts (AID 2010); type: functional;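 further: cells exposed to compound for about 90 hours before reading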

Question: With `Cc1ccccc1OCCNc1cc(N2CCN(CCO)CC2)ccc1[N+](=O)[O-]` as the molecule, how does the CC50 [1] read?
Answer: The CC50 was 19.4 µM (active).

Question: For `Cc1cc(C)c(C(=O)Nc2ccc(Br)c(C(F)(F)F)c2)c(C)c1`, which EC50 [2] is on record?
Answer: The EC50 was 3.29 µM (active).

Question: What about the EC50 [3] of the same molecule?
Answer: Its EC50 is 3.73 µM (active).

Question: And the CC50 [1]?
Answer: The CC50 was 47.4 µM (active).

Question: And the EC50 [4]?
Answer: Its EC50 is 2.41 µM (active).

Question: Which results are given for `O=C(NCc1nc2ccccc2[nH]1)C1=C[C@@H](c2ccc(Br)cc2)C[C@@H](OCc2ccc(CO)cc2)O1`?
Answer: IC50 [5]: 1.33 µM (active); IC50 [6]: 33.7 µM (inactive); IC50 [7]: 66.6 µM (inactive); IC50 [8]: 0.498 µM (active)

Question: For `C[C@H]1CN([C@@H](C)CO)C(=O)c2cccc(NC(=O)c3ccc(-c4nccs4)cc3)c2O[C@H]1CN(C)C(=O)Nc1ccc(C(F)(F)F)cc1`, which AC50 [9] is on record?
Answer: Its AC50 is 8.06 µM (active).

Question: For `OC(c1nnc(-c2ccccc2)o1)c1cccs1` (stereo not given), which EC50 [10] is on record?
Answer: The EC50 was 441 µM (not active).

Question: For `C[C@H](CO)N1C[C@H](C)[C@@H](CN(C)S(=O)(=O)c2ccccc2)OCCCC[C@H](C)Oc2ccc(NC(=O)Nc3ccc4c(c3)OCO4)cc2C1=O`, which AC50 [9] is on record?
Answer: Its AC50 is 2.35 µM (active).

Question: With `COc1cccc(CNC(=O)CCC2CCCN(C/C=C/c3ccccc3OC)C2)c1` (stereo not given) as the molecule, how does the EC50 [11] read?
Answer: The EC50 was < 0.1 µM (active).

Question: And the EC50 [12]?
Answer: The EC50 was 0.05 µM (active).

Question: What about the EC50 [13] of the same molecule?
Answer: The EC50 was > 60 µM (not active).
